Blank lines part the entries; values can stand above or below the compound they belong to.
Assays:
[1] = tested on: premalignant 10T1/2 cells; experiment: cells; details: for Differentiation at 1 mM: sodium salts; for DC50: Mus musculus, Adipocyte, read-out: DC50, concentration of compound causing 50% differentiation; for adipocyte conversion: glutamine antagonists
Method: C. Quantitation of adipocytosis. Lipids stained with Oil-Red O were extracted with butanol, and the optical density at 510 nm determined.
Lower: Quantitation of adipocytosis. Cells were fixed with 37% formaldehyde and stained with Oil-Red O. The stained intracellular lipid was extracted with butanol, and the optical density was determined using a Titertek Multiskan MC, manufactured by Flow Laboratories, at a wavelength 510 nm.

[2] = tested on: Leukemia K562; experiment: Tumor cell growth / proliferation; details: K562 cell line
[3] = tested on: 10T1/2 cells; experiment: Neoplastic foci formation in culture
Text: […] The cells were then subcultured in the absence of the nucleoside analog for an additional seven weeks. […] For the tumorigenicity assay, 4-5 week-old female athymic nude mice were inoculated s.c. with 1 x 10^6 cells and observed for tumor growth at the site of injection.

[4] = tested on: C3H 10T1/2 Cells; experiment: Tumorigenicity of treated cells in athymic mice; details: time 8 weeks
Method: Premalignant cells (3-4 x 10^5) were plated in 75 cm^2 dishes and 5-AzadC 0.1 µM was added to the growth medium at 20 and 48 hrs after plating. The cells were then subcultured in the absence of the nucleoside analog for an additional seven weeks. […] For the tumorigenicity assay, 4-5 week-old female athymic nude mice were inoculated s.c. with 1 x 10^6 cells and observed for tumor growth at the site of injection.

[5] = tested on: 4C8a10 cells; experiment: Malignant phenotype in culture / growth on matrigel; format: cell-based
Method: (§1) The experimental model involved nonmalignant 4C8a10 cells (revertants of Haras-transformed NIH3T3 fibroblasts). […]
^b Cells were plated on top of matrigel (reconstituted basement membrane) and observed for malignant growth pattern, i.e., active replication, development of characteristic processes, and invasion.

[6] = tested on: 4C8a10 cells (revertants of Haras-transformed NIH3T3 fibroblasts); experiment: Tumor formation of cells pretreated in culture and injected s.c. into athymic nude mice; format: in vivo; details: cells pretreated with 5-AzadC 0.1 µM, after 3 weeks
Text: One-two weeks later the cells were transplanted subcutaneously into athymic mice.
as §1
Frederick Cancer Research Facility).

[7] = tested on: HL-60; experiment: Granulocyte differentiation (NBT reduction, morphology) and viability by trypan blue exclusion; details: Homo sapiens, HL-60, read-out: Cell viability
Method: The number of NBT positive cells was determined after 4 [solid bars] or 7 days [hatched bar] of treatment. […] Glutamine Starvation (Gln, < 0.06 mM) was as described (18).
The ability of cells to reduce nitroblue tetrazolium (NBT) is indicative of oxidase activity which is characteristic of the more mature forms of human bone marrow granulocytes. NBT reduction thus serves as an indicator of granulocyte differentiation. […] Glutamine starvation (Gln, < 0.06 mM) was as described. […] DON, ACV and HPA are glutamine antagonists.

[8] = tested on: Erythroleukemia K562 cells; experiment: Induction of hemoglobin synthesis (benzidine staining, protein quantitation); details: HU 100 µM, seven days
[9] = tested on: Prostate Adenocarcinoma PC3; experiment: Tumor cell growth / proliferation; format: cell-based; details: Homo sapiens, PC-3
Method: Studies of depth were performed with two androgenindependent human prostate adenocarcinoma cell lines, PC3 and DU145, established from bone and brain metastases, respectively.

[10] = tested on: Malignant Melanoma A375; experiment: Tumor cell growth / proliferation

Compound: O=C(O)Cc1cccc(Cl)c1 [3-chlorophenylacetate]
- Differentiation at 1 mM [1]: 80%
- DC50 [1]: 500 µM

Compound: O=C(O)Cc1ccc(O)cc1O [2,4-dihydroxyphenylacetate]
- toxicity [2]: highly toxic

- frequency of foci of neoplastically transformed cells [3]: about 7x10^-4
- Tumors Diameter ([4]; 5-AzadC 0.1 µM): 5.5 ± 2.5 mm ± S.D.
- time until malignant conversion evident ([5]; transient treatment of premalignant cells): ≤ 2 days
- Tumor Formation Size, mean (range) [6]: 11.5 (4-19) mm
Compound: Nc1ncn([C@H]2C[C@H](O)[C@@H](CO)O2)c(=O)n1 [5-AzadC, 5-aza-2'-deoxycytidine, reference compound]
- Tumors Incidence ([4]; 5-AzadC 0.1 µM at 20 and 48 hrs after plating, 1 x 10^6 cells s.c.): 8/8
- Growth on matrigel ([5]; 5-AzadC 0.1 µM): +
- Tumor Formation Incidence ([6]; 5x10^5 cells per site s.c.): 8/8

- DC50 [1]: 1000 µM
Compound: O=C(O)Cc1ccc(Cl)cc1 [4-chlorophenylacetate]
- Differentiation at 1 mM [1]: 50%

- DC50 [1]: < 100 µM
Compound: O=C(O)Cc1cccc2ccccc12 [1-naphthylacetate]
- Differentiation at 1 mM [1]: >95%

Compound: [N-]=[N+]=CC(=O)CC[C@H](N)C(=O)O [DON, 6-diazo-5-oxo-L-norleucine]
- adipocyte conversion [1]: neither glutamine starvation nor by treatment with glutamine antagonists such as DON and ACV resulted in adipocyte conversion
- viability at 25 µg/mL [7]: 75%
- viability at 30 µg/mL [7]: 75%

- DC50 [1]: 500 µM
Compound: O=C(O)Cc1c(Cl)cccc1Cl [2,6-dichlorophenylacetate]
- Differentiation at 1 mM [1]: 75%

Compound: NC(=O)NO [HU, hydroxyurea, reference compound]
- Benzidine Positive Cells [8]: 17.2%

Compound: Cc1ccc(C(=O)Nc2ccc(S(=O)(=O)O)c3cc(S(=O)(=O)O)cc(S(=O)(=O)O)c23)cc1NC(=O)c1cccc(NC(=O)Nc2cccc(C(=O)Nc3cc(C(=O)Nc4ccc(S(=O)(=O)O)c5cc(S(=O)(=O)O)cc(S(=O)(=O)O)c45)ccc3C)c2)c1 [Suramin, suramin]
- activity at 75 µg/mL ([9]; Suramin 75 µg/ml): 58.5%
- activity at 150 µg/mL ([9]; Suramin 150 µg/ml): 46.5%
- activity at 300 µg/mL ([9]; Suramin 300 µg/ml): 31%
- Growth ([10]; Suramin 38 µg/ml): 78.3 % of control
- Viability ([10]; Suramin 38 µg/ml): > 95%
- Growth ([10]; Suramin 75 µg/ml): 56.8 % of control
- Viability ([10]; Suramin 75 µg/ml): > 95%
- Growth ([10]; Suramin 150 µg/ml): 38.6 % of control
- Viability ([10]; Suramin 150 µg/ml): 92%
- Growth ([10]; Suramin 300 µg/ml): 26.6 % of control
- Viability ([10]; Suramin 300 µg/ml): 82%

Compound: O=C(O)Cc1cc(O)cc(O)c1
- toxicity [2]: highly toxic

- DC50 [1]: 700 µM
Compound: O=C(O)Cc1ccc(F)cc1 [4-fluorophenylaceatae]
- Differentiation at 1 mM [1]: 65%

Compound: N[C@H](C(=O)O)[C@@H]1CC(Cl)=NO1 [ACV, acivicin]
- adipocyte conversion [1]: neither glutamine starvation nor by treatment with glutamine antagonists such as DON and ACV resulted in adipocyte conversion
- viability at 1 µg/mL [7]: 63%
- viability at 3 µg/mL [7]: 63%

Reference: patent EP0567613B1, “COMPOSITIONS FOR THERAPY AND PREVENTION OF CANCER” (The Government of the United States of America, as …, priority 1991, dated 1993)
